{"source": "paper PMC11868579", "about": "(Nature Communications, 2024)", "key": {"[1]": {"target": "T1, endogenous eIF4E:eIF4G interaction (Homo sapiens, UniProt P06730)", "T1 construct": "endogenous in cells; host or cells: HeLa, SW620 or H1299 cells (lysates; intact H1299 cells in A13)", "T1 sequence (P06730 2-217 limits assumed)": "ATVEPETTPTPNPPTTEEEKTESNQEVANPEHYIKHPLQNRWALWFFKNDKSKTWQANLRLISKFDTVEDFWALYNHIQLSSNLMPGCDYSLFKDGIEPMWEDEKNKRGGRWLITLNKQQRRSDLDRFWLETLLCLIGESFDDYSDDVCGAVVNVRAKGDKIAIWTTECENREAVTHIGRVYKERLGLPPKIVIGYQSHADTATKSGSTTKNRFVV", "assay": "Electro-chemiluminescent eIF4E:eIF4G assay after treatment of intact H1299 cells", "format": "cell-based", "conditions": "100 µM; for endogenous eIF4E:eIF4G interaction in intact cells, electro-chemiluminescent signal, Average: H1299"}, "[2]": {"test_system": "H1299 cells", "assay": "CellTiter-Blue cell viability, H1299", "format": "cell-based, human", "conditions": "H1299, 4 days, n=3", "procedure": "Cell viability was measured by CellTiter-Blue® Cell Viability Assay. Cells were seeded in 96 well plates (Corning, cat#353072) and left overnight. Compounds were added at a range of concentrations and plates incubated at 37 °C for 96 hr. Cell titre blue reagent (Promega, Hampshire, UK, cat# G8081) was added (5 μl/well) and incubated for a further 2 h at 37 °C. Fluorescence (579Ex/584Em) was measured using a PHERAstar plate reader."}, "[3]": {"target": "T2, eIF4E-dTAG protein (Homo sapiens, UniProt P06730)", "T2 construct": "expressed in transfected cells", "T2 sequence (P06730 with tags, fused parts or gaps)": "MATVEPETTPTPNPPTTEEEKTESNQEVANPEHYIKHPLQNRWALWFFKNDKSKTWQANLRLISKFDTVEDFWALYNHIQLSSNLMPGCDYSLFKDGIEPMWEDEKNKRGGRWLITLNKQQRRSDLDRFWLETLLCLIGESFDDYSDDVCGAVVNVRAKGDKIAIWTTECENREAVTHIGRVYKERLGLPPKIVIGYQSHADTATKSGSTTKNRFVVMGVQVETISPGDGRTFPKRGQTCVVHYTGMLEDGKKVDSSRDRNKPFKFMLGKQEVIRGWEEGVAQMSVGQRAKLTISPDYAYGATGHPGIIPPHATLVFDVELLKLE", "assay": "CETSA of eIF4E-dTAG protein in H1299 C3-1 cells", "format": "cell-based", "conditions": "50 μM; relative to control = 1.000; n=3", "procedure": "Cells (1.5 × 10^6 cells) were plated into 75 cm^2 flasks and allowed to attached overnight. After treatment with compound 4 or 5 for 6 h, they were harvested by trypsinisation and washed x2 in ice cold PBS. Cells were resuspended in 1 ml of cold PBS supplemented with protease and phosphatase inhibitors (Fisher Scientific, cat#1861281). Resuspended cells were divided into 100 μl aliquots and centrifuged at 300 x g for 3 min at 4 °C. Following centrifugation, 75μl of supernatant was removed and cells resuspended in the remaining volume. Cell suspensions were heated at 40.9, 43.7, 48.1, 52.9, 57.6, 62.4, 67.2, 71.9, 76.3 and 79.1 °C for 3 mins followed by cooling at 20 °C for 3 min[25]. Suspensions were freeze-thawed twice using liquid nitrogen. Soluble fractions were separated from cell debris by centrifuging at 20,000 x g for 30 min at 4 °C. Samples were then analysed by Western Blot. […]\nVinculin was used as a loading control. c Thermal stabilisation of eIF4E-dTAG protein by compound 4 or 5 binding. Quantification of immunoblots from H1299 C3-1cells incubated at 57.6 °C, following treatment with compound 4 (50, 25, 10, 5, 1, 0.5 μM) or compound 5 (50 μM) for 6 hr. Vinculin was […]\n(1 picture or pasted object on this page, not shown here)"}, "[4]": {"target": "eIF4E:eIF4G interaction (Homo sapiens, UniProt P06730)", "sequence (P06730 2-217 limits assumed)": "as the sequence (P06730 2-217 limits assumed) above", "assay": "Electro-chemiluminescent binding assay, eIF4E:eIF4G, HeLa cell lysates", "format": "biochemical", "parameters": "endogenous in cells; host or cells: HeLa cells (lysates)", "conditions": "for binding of eIF4G or 4E-BP1 with eIF4E, luminescence normalised to DMSO control, Average: HeLa, n=3, Fig. 4e", "procedure": "(§1) This assay uses plates with carbon electrodes and electro-chemiluminescent labels (SULFO-TAGs) that are conjugated to detection antibodies. When an electric current is applied to the plate electrodes the SULFO-TAG labels will emit light that is measured to quantify analytes in the sample. […] The plates were washed with 3 ×150 µl/well MSD wash buffer (cat#R61AA-1; 0.2% Tween-20 in PBS), then blocked with 150 µl/well block buffer (MSD, cat# R93AA) for 1 h. […] The incubated plates were washed 4x in 150 µl in MSD wash buffer and were re-blocked by the addition of 25 μl of blocking buffer containing a 1:500 dilution of the secondary antibody and incubated for 1 hr at RT with rotational shaking. […] Plates were then washed again 4x in 150 µl in MSD wash buffer and 25 μl of a 1:50 dilution of Goat anti-rabbit Sulfo-Tag (MSD, Cat# R32AB-1) in MSD blocking buffer was added and the plates incubated for 1 h at RT with rotational shaking. After a final wash step, 150 μl Read Buffer T4X (MSD, Cat# R92-TC2) was added and the plate read using the MSD QuickPlex SQ 120 plate reader."}, "[5]": {"target": "T3, eIF4G binding to eIF4E (Homo sapiens, UniProt P06730)", "T3 construct": "endogenous in cells; host or cells: SW620 cells (lysates)", "T3 sequence (P06730 2-217 limits assumed)": "as above", "assay": "Co-immunoprecipitation with eIF4E antibody, immunoblot for eIF4G, SW620 lysates", "format": "biochemical", "conditions": "1–100 µM, 30 min", "method": "Cells were harvested by trypsinisation and washed with PBS before lysis in MSD lysis buffer (150 mM NaCl, 20 mM Tris pH 7.5, 1 mM EDTA, 1 mM EGTA, 1% Triton X-100) containing protease inhibitors (Roche, complete mini tablet, cat# 11836153001) and phosphatase inhibitors (50 mM NaF and 100 mM Na3VO4). Lysate was placed on ice for 30 min and then cleared in a microfuge at 17,000 x g for 10 min at 4 °C. The protein concentration of the cleared lysate was determined by BCA assay (Pierce) and adjusted to 4 mg/ml with lysis buffer. […] 100 μl of lysate and 100 μl of beads were then incubated with shaking overnight at 4 °C. Samples were then washed 3x with 1 ml PBS, resuspended in 100 μl PBS and boiled for 10 min with 1x SDS-PAGE sample buffer containing 10 μl 1 mM DTT.\nAfter seeding overnight in 6 well plates (Corning, cat#353046), cells were treated with compounds for the indicated times and concentration, harvested and the cell pellet lysed on ice in cell lysis buffer (Cell Signaling, cat#9803), supplemented with 1x Halt^TM protease inhibitor cocktail (Fisher Scientific, cat#78429) and cOmplete^TM protease inhibitor cocktail (Sigma-Aldrich, cat#11836153001) for 1 hr. Protein was quantified using BCA protein kit (Fisher Scientific, cat#23225). […] Quantitative densitometry analysis of protein bands was performed using Image J v1.53 software."}, "[6]": {"target": "T4, eIF4E major variant (D127) (Homo sapiens, UniProt P06730)", "T4 construct": "made in house; host or cells: E. coli (as described for clone 2983)", "T4 sequence (P06730 with tags, fused parts or gaps)": "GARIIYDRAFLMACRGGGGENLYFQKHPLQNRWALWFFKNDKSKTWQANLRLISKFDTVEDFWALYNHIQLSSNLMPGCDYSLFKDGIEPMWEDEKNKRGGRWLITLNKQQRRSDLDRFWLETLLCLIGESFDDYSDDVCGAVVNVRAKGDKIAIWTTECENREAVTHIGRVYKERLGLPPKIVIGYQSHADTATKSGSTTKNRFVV", "format": "binding", "procedure": "ITC experiments were performed on either a MicroCal VP-ITC or a MicroCal Auto-ITC200 at 25 °C in a buffer comprising 50 mM HEPES, 100 mM NaCl, 1 mM TCEP and 5% DMSO at pH 7.5. Typical titrations on the MicroCal VP-ITC were performed using 17 × 16.4 µL injections with a 250 s spacing between each injection and with a stirring speed of 307 rpm. Typical titrations on the MicroCal Auto-ITC200 were performed using 12 × 3 µL injections with a 150 s spacing between each injection and with a stirring speed of 750 rpm. ITC data analyses were performed with Origin 7.0 software using the “One Set of Sites” model."}, "[7]": {"test_system": "cap-dependent and cap-independent (IRES) protein synthesis", "assay": "Bicistronic protein synthesis reporter in H1299 cells", "format": "cell-based, human", "conditions": "H1299, 24 hr, normalisation not stated", "procedure": "H1299 cells were transfected with a biscistronic vector using Lipofectamine 3000 transfection reagent (Fisher Scientific, cat#L3000008) for 24 hr and then treated with compounds for further 24 h. Luminescence was measured after 24 h of compound treatment using the Dual Glo luciferase reporter assays as above."}, "[8]": {"target": "eIF4E–4E-BP1 interaction (Homo sapiens, UniProt P06730)", "sequence (P06730 2-217 limits assumed)": "as the sequence (P06730 2-217 limits assumed) above", "assay": "Electro-chemiluminescent binding assay, eIF4E:4E-BP1, HeLa cell lysates", "format": "biochemical", "parameters": "endogenous in cells; host or cells: HeLa cell lysates", "conditions": "read-out: Inhibition of PPI in HeLa cells: eIF4E–4E-BP1 interaction; HeLa cell lysates, values in parentheses", "procedure": "as §1"}}, "note": "“And” between values parts separate entries of the source, which are not always exact repeats. Identical values can stand only once.", "data": [{"molecule": "CC[C@@H](O[C@H](C)CO)c1ccc(-c2ccccc2F)cc1NCCO", "note": "[Compound 5]", "values": [{"measurement": "disruption of eIF4E:eIF4G binding in intact cells", "setting": "[1]; 16 hr", "value": "some limited evidence of activity"}, {"measurement": "endogenous eIF4E:eIF4G interaction in intact cells, electro-chemiluminescent signal, Average", "setting": "[1]; 6hr, control 1641896.8", "value": 1584729.4}, {"measurement": "endogenous eIF4E:eIF4G interaction in intact cells, electro-chemiluminescent signal, Average", "setting": "[1]; 16hr, control 1700881.1", "value": 1071107.1}, {"measurement": "Cell viability by cell titre blue assay, Average", "setting": "[2]; 0.62 uM", "value": 92.413}, {"measurement": "Cell viability by cell titre blue assay, Average", "setting": "[2]; 1.85 uM", "value": 89.367}, {"measurement": "Cell viability by cell titre blue assay, Average", "setting": "[2]; 5.56 uM", "value": 90.001}, {"measurement": "Cell viability by cell titre blue assay, Average", "setting": "[2]; 16.67 uM", "value": 80.933}, {"measurement": "Cell viability by cell titre blue assay, Average", "setting": "[2]; 50 uM", "value": 48.944}, {"measurement": "Thermal stabilisation of eIF4E-dTAG protein, Average", "setting": "[3]", "value": 1.004}, {"measurement": "effect on eIF4G binding", "setting": "[4]; HeLa cell lysates", "value": "limited effect on eIF4G binding compared to 4"}, {"measurement": "EC50", "setting": "[4]; HeLa cell lysates, n = 4, read-out: Inhibition of PPI in HeLa cells: eIF4E-eIF4G interaction", "value": "> 100", "unit": "µM"}, {"measurement": "binding of eIF4G or 4E-BP1 with eIF4E, luminescence normalised to DMSO control, Average", "setting": "[4]; Conc 0.03 μM", "value": 75.0, "unit": "%"}, {"measurement": "binding of eIF4G or 4E-BP1 with eIF4E, luminescence normalised to DMSO control, Average", "setting": "[4]; Conc 0.1 μM", "value": 70.5, "unit": "%"}, {"measurement": "binding of eIF4G or 4E-BP1 with eIF4E, luminescence normalised to DMSO control, Average", "setting": "[4]; Conc 0.3 μM", "value": 80.4, "unit": "%"}, {"measurement": "binding of eIF4G or 4E-BP1 with eIF4E, luminescence normalised to DMSO control, Average", "setting": "[4]; Conc 1 μM", "value": 86.3, "unit": "%"}, {"measurement": "binding of eIF4G or 4E-BP1 with eIF4E, luminescence normalised to DMSO control, Average", "setting": "[4]; Conc 3 μM", "value": 81.2, "unit": "%"}, {"measurement": "binding of eIF4G or 4E-BP1 with eIF4E, luminescence normalised to DMSO control, Average", "setting": "[4]; Conc 10 μM", "value": 84.0, "unit": "%"}, {"measurement": "binding of eIF4G or 4E-BP1 with eIF4E, luminescence normalised to DMSO control, Average", "setting": "[4]; Conc 30 μM", "value": 77.0, "unit": "%"}, {"measurement": "binding of eIF4G or 4E-BP1 with eIF4E, luminescence normalised to DMSO control, Average", "setting": "[4]; Conc 100 μM", "value": 75.2, "unit": "%"}, {"measurement": "binding of eIF4G or 4E-BP1 with eIF4E, luminescence normalised to DMSO control, Average", "setting": "[4]; Conc 300 μM", "value": 79.2, "unit": "%"}, {"measurement": "binding of eIF4G or 4E-BP1 with eIF4E, luminescence normalised to DMSO control, Average", "setting": "[4]; Conc 1000 μM", "value": 79.6, "unit": "%"}, {"measurement": "effect on eIF4G binding to eIF4E (co-immunoprecipitation)", "setting": "[5]", "value": "limited effect"}, {"measurement": "reduced binding affinity by ITC", "setting": "[6]; compound 5 versus compound 4", "value": 30, "unit": "fold"}, {"measurement": "LE (ligand efficiency)", "setting": "[6]; major variant D127 (values in parentheses)", "value": "- (0.3) (kcal/mol)/heavy atom"}, {"measurement": "Kd", "setting": "[6]; read-out: eIF4E Kd, ITC, major variant D127 (values in parentheses)", "value": 3, "unit": "µM"}, {"measurement": "protein synthesis reporter signal (cap-dependent luciferase / IRES luciferase), replicate values", "setting": "[7]; 10 μM", "value": "0.991 and 1.031 and 2.154 and 1.191 and 1.096 and 0.294"}, {"measurement": "protein synthesis reporter signal (cap-dependent luciferase / IRES luciferase), replicate values", "setting": "[7]; 25 μM", "value": "1.003 and 1.037 and 1.187 and 0.927 and 1.046 and 2.532"}, {"measurement": "EC50", "setting": "[8]", "value": "> 100", "unit": "µM"}]}]}
